For one assay, the system named is SW620. As to the kind of experiment: Inhibition of cells growth by colorimetric assay (SRB). In outline: (§1)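 Colorimetric SRB read (490 nm) on triplicate wells after 48 h at 37 °C, 5% CO2. Dose range 10 to 10^−8 μg/ml; 5×10^3 cells/well pre-attached 18 h.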
The subject of the next assay is SK-MEL-28. The assay is described as above. Particulars: Homo sapiens, SK-MEL-28, 48 h. The method in brief: as §1
The test system of the next assay is MDA-MB-231. The description is as above. The method in brief: as §1
The subject of another assay is DU-145. The description is as above. As to conditions: Homo sapiens, DU-145, 48 h. In outline: as §1
A further assay concerns A-498. The assay is described as above. In outline: as §1
In the next assay the test system is MCF-7. Described as above. In outline:
as §1

The subject of another assay is OVCAR-3. The description is as above. In outline: as §1
A further assay has as its system HT-29. As to the kind of experiment: cells. Particulars: Homo sapiens, HT-29, 48 h. In outline: as §1
The next assay has as its system A-549. The experiment in a line: cells. Particulars: Homo sapiens, A549, 48 h. The method in brief: as §1
Another assay concerns HT-29 cells. The experiment in a line: Inhibition of cell growth by counting cells. Type of assay: cell-based. As to conditions: Homo sapiens, HT-29, 72 h; ht29 cells, three days of incubation. From the text:
(§2) The finality of these assays is to interrupt the growth of a “in vitro” tumor cell culture by means a continued exhibition of the cells to the sample to be testing.
(§3) This form of the assay employs 24 well multidishes of 16 mm diameter (Bergeron, 1984; Schroeder, 1981). The tumor cell lines employed are: P-388 (ATCC CCL 46), suspension culture of a lymphoid neoplasm from a DBA/2 mouse; A-549 (ATCC CCL 185), monolayer culture of a human lung carcinoma; HT-29 (ATCC HTB-38), monolayer culture of a human colon carcinoma; MEL-28 (ATCC HTB-72), monolayer culture of a human melanoma and DU-145 (ATCC HTB-81), monolayer culture of a human prostate carcinoma.
(§4) Cells were maintained, in logarithmic phase of growth in Eagle's Minimum Essential Medium, with Earle's Balanced Salts, with non-essential amino acids, with 2.0 mM L-Glutamine, without sodium bicarbonate (EMEM/neaa), supplemented with 10% Fetal Calf Serum (FCS), 10^−2 M. sodium bicarbonate and 0.1 U/1 penicillin G+0.1 g/l streptomycin sulfate.
(§5) A-549, HT-29, MEL-28 and DU-145 cells were seeded into 16 mm diameter wells at 1×10^4 cells per well in 1 ml aliquots of EMEM 5% FCS containing different concentrations of the sample to be tested. A separate set of cultures without drug was seeded as control of growth, to ensure that cells remained in exponential phase of growth. All determinations are caring out in duplicate. After three days of incubation at 37° C., 5% CO2 in a 98% humid atmosphere cells were stained with 0.1% crystal violet. An approximately IC50 was determined by comparing the growth in wells with drug to the growth in wells control.
(§6) For quantifying the activity, after the incubation time, cells are trypsinized and counted in a Coulter Counter ZM. All counts (net cells per well), represent the average of duplicate wells. % G, percent of growth relative to cultures without drug.
(§7) For this technique, compounds which show IC50 values smaller than 1 μg/ml are selected to continue with further studies.

A further assay concerns DU-145 cells. As to the kind of experiment: Inhibition of cell growth by counting cells. Particulars: Homo sapiens, DU-145, 72 h; du145 cells, three days of incubation. The class given is cell-based.
Excerpt: as §2, §3, §4, §5, §6, §7

The test system of the next assay is A-549 cells. As to the kind of experiment: Inhibition of cell growth by counting cells. The class given is cell-based. As to conditions: Homo sapiens, 72 h; a549 cells, three days of incubation.
Excerpt: as §2, §3, §4, §5, §6, §7

Another assay has as its system MEL-28 cells. As to the kind of experiment: Inhibition of cell growth by counting cells. Type of assay: cell-based. As to conditions: Homo sapiens, SK-MEL-28, 72 h; mel28 cells, three days of incubation.
Excerpt: as §2, §3, §4, §5, §6, §7

Another assay has as its system P-388 cells. The experiment in a line: Inhibition of cell growth by counting cells. The class given is cell-based. Particulars: Mus musculus, 72 h; p388 cells, three days of incubation.
Excerpt: as §2, §3, §4
P-388 cells were seeded into 16 mm diameter wells at 1×10^4 cells per well in 1 ml aliquots of EMEM 5% FCS containing different concentrations of the sample to be tested. […]
For quantifying the activity, after the incubation time, cells are trypsinized and counted in a Coulter Counter ZM. […]

Take `COc1c(C)cc2c(c1O)C1C3[C@@H]4SCC(=O)C(=O)OC[C@@H](c5c6c(c(C)c(OC(C)=O)c54)OCO6)N3[C@@H](O)[C@H](C2)N1C` (stereo partly drawn) [Et-594]: the GI50 in the assay with SW620 (Homo sapiens, SW-620, 48 h, read-out: SW-620 GI50) turned out to be 32.7 nM; in the assay on SK-MEL-28 (read-out: MEL-28 GI50) it was 32.7 nM; in the assay on MDA-MB-231 (Homo sapiens, MDA-MB-231, 48 h, read-out: MB231 GI50) it was 32.7 nM; with DU-145 (read-out: DU145 GI50), 32.7 nM; in the assay on A-498 (Homo sapiens, A498, 48 h, read-out: A498 GI50), 81.7 nM; in the assay with MCF-7 (Homo sapiens, MCF7, 48 h, read-out: MCF GI50), 32.7 nM. For the same molecule, the GI50 with OVCAR-3 (Homo sapiens, OVCAR-3, 48 h, read-out: OVCAR GI50) was 32.7 nM; in the assay with HT-29 (read-out: HT29 GI50) it was 49 nM; with A-549 (read-out: A549 GI50), 49 nM. The CC50 in the assay with SW620 (Homo sapiens, SW-620, 48 h, read-out: SW-620 LC50) was determined as 3270 nM; in the assay with SK-MEL-28 (read-out: MEL-28 LC50) it was 131 nM; in the assay on MDA-MB-231 (Homo sapiens, MDA-MB-231, 48 h, read-out: MB231 LC50) it was 1630 nM; in the assay with DU-145 (read-out: DU145 LC50) it was 163 nM; in the assay with A-498 (Homo sapiens, A498, 48 h, read-out: A498 LC50), 11400 nM; in the assay with MCF-7 (Homo sapiens, MCF7, 48 h, read-out: MCF LC50), 3270 nM. The CC50 with OVCAR-3 (Homo sapiens, OVCAR-3, 48 h, read-out: OVCAR LC50) came out at 16300 nM; in the assay with HT-29 (read-out: HT29 LC50), 1630 nM; in the assay with A-549 (read-out: A549 LC50) it was 654 nM. For the same molecule, in the assay on SW620 (SW-620, SRB, 48 hours exposure), the “SW-620 TGI” value is 9.80E−08 Molar. Further, the IC (TGI) in the assay with SK-MEL-28 (read-out: MEL-28 TGI) stood at 65.4 nM; with DU-145 (read-out: DU145 TGI), 81.7 nM; with HT-29 (read-out: HT29 TGI), 98 nM; with A-549 (read-out: A549 TGI) it was 131 nM. For the same molecule, in the assay on MDA-MB-231 (MB231, SRB, 48 hours exposure), the “MB231 TGI” value came out at 1.14E−07 Molar. In addition, the “A498 TGI” value in the assay with A-498 (A498, SRB, 48 hours exposure) is 3.27E−07 Molar. For the same molecule, the “MCF TGI” value in the assay with MCF-7 (MCF, SRB, 48 hours exposure) turned out to be 9.80E−08 Molar. For the same molecule, the “OVCAR TGI” value with OVCAR-3 (OVCAR, SRB, 48 hours exposure) was found to be 1.14E−07 Molar.

For the molecule `COc1c(C)cc2c(c1O)[C@@H]1C3[C@@H]4SCC(NC(C)=O)C(=O)OC[C@@H](c5c6c(c(C)c(OC(C)=O)c54)OCO6)N3[C@@H](C#N)[C@H](C2)N1C` (stereo partly drawn) [compound 19], the half-inhibitory concentration (IC50) in the assay on HT-29 cells, in the assay with DU-145 cells, in the assay on A-549 cells, in the assay with MEL-28 cells and in the assay with P-388 cells was 0.753 nM each time.

With `COc1c(C)cc2c(c1O)[C@@H]1C3[C@@H]4SCC(=O)C(=O)OC[C@@H](c5c6c(c(C)c(OC(C)=O)c54)OCO6)N3[C@@H](C#N)[C@H](C2)N1C` (stereo partly drawn) [compound 16], the IC50 with HT-29 cells, with A-549 cells, with MEL-28 cells and in the assay on P-388 cells was 16.3 nM in each case.

As usually defined, the GI50 is the concentration giving 50% growth inhibition. One may read the IC50 as the concentration at which inhibition is half-maximal. Read a high IC50 as a need for much substance.

The record behind these values is patent US7767659B2, “Synthesis of naturally occurring ecteinascidins and related compounds” (Pharma Mar, S.A., priority 2002, dated 2010).
